Values of other authors in patent US20090145189A1, “Composition and a manufacturing method thereof” (priority 2007, published 2009).

Columns and labels:
[1] = concentrations above 40 wt %, such as 50 wt %

Row | SMILES | Viscosity [1] | Water solubility
1 | O=C([O-])CN(CCN(CC(=O)[O-])CC(=O)[O-])CCN(CC(=O)[O-])CC(=O)[O-].[Na+].[Na+].[Na+].[Na+].[Na+] [DTPANa5, penta sodium salt of diethylenetriamine-N,N,N-penta-acetic acid] | too viscous to allow convenient handling | –
2 | O=C(O)CN(CCN(CC(=O)O)CC(=O)O)CCN(CC(=O)O)CC(=O)O [DTPA, diethylenetriamine-N,N,N-penta-acetic acid] | – | low water solubility
